Legend:
Experiment in all cases: differential drug sensitivity score (dDSS) relative to sarcoma reference cohort mean DSS (DSS units (0-100 scale difference)); higher = more selective sensitivity than reference sarcomas
Conditions in all cases: exposure time: 72 h; concentration range: 10-10000 nM
ES-ZH001 = system: ES-ZH001 (patient-derived Ewing sarcoma tumoroid)
Protocol: (§1)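 Drug response profiling of patient-derived Ewing sarcoma and CIC::DUX4 sarcoma tumoroid models (or cells tested directly after isolation from the tumor, 'direct'). The DSS is the normalised AUC (0-100); dDSS is the sample DSS minus the mean DSS of a 34-sarcoma reference cohort profiled in the same lab.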

ES-ZH007 = system: ES-ZH007 (patient-derived Ewing sarcoma tumoroid)
Protocol: as §1

CDS-ZH002 direct = system: CDS-ZH002 direct (CIC-DUX4 sarcoma cells right after isolation)
Protocol: as §1

ES-ZH009 = system: ES-ZH009 (patient-derived Ewing sarcoma tumoroid)
Protocol: as §1

CDS-ZH002 = system: CDS-ZH002 (patient-derived CIC-DUX4 sarcoma tumoroid)
Protocol: as §1

CDS-ZH001-2 = system: CDS-ZH001-2 (patient-derived CIC-DUX4 sarcoma tumoroid)
Protocol: as §1

CDS-ZH003 = system: CDS-ZH003 (patient-derived CIC-DUX4 sarcoma tumoroid)
Protocol: as §1

ES-ZH016 = system: ES-ZH016 (patient-derived Ewing sarcoma tumoroid)
Protocol: as §1

ES-ZH008 = system: ES-ZH008 (patient-derived Ewing sarcoma tumoroid)
Protocol: as §1

ES-ZH002 = system: ES-ZH002 (patient-derived Ewing sarcoma tumoroid)
Protocol: as §1

ES-ZH004 = system: ES-ZH004 (patient-derived Ewing sarcoma tumoroid)
Protocol: as §1

CDS-ZH001 = system: CDS-ZH001 (patient-derived CIC-DUX4 sarcoma tumoroid)
Protocol: as §1

ES-ZH016 direct = system: ES-ZH016 direct (Ewing sarcoma cells right after isolation)
Protocol: as §1

| SMILES | differential drug sensitivity score (ES-ZH001) | differential drug sensitivity score (ES-ZH007) | differential drug sensitivity score (CDS-ZH002 direct) | differential drug sensitivity score (ES-ZH009) | differential drug sensitivity score (CDS-ZH002) | differential drug sensitivity score (CDS-ZH001-2) | differential drug sensitivity score (CDS-ZH003) | differential drug sensitivity score (ES-ZH016) | differential drug sensitivity score (ES-ZH008) | differential drug sensitivity score (ES-ZH002) | differential drug sensitivity score (ES-ZH004) | differential drug sensitivity score (CDS-ZH001) | differential drug sensitivity score (ES-ZH016 direct) |
| --- | --- | --- | --- | --- | --- | --- | --- | --- | --- | --- | --- | --- | --- |
| CN1CCN(CCOc2cc(OC3CCOCC3)c3c(Nc4c(Cl)ccc5c4OCO5)ncnc3c2)CC1 [Saracatinib] | -0.7 | -2.3 | 4.3 | -2.8 | -0.5 | 0.9 | -1.5 | -1.7 | 5.7 | 5.6 | 2.9 | 0.3 | 2.3 |
| CCc1c(O)cc(O)c(C(=O)c2ccc(OCCN3CCOCC3)c(OC)c2)c1CC(=O)N(CCOC)CCOC [KW-2478] | 3.5 | 0.6 | -0.4 | 4.4 | -3.8 | 0.4 | -1.3 | 1.4 | 6.1 | 7.3 | 0 | -0.4 | 3.2 |
| O=C1c2c(O)ccc(O)c2C(=O)c2c(NCCNCCO)ccc(NCCNCCO)c21 [Mitoxantrone] | 10.9 | -1.8 | 0.4 | 10 | 3.5 | 9.1 | -2.1 | 14.7 | 9.8 | 21.8 | 5.1 | 5.1 | 11.9 |
| Nc1ncc(-c2nc(N3CCOCC3)nc(N3CCOCC3)n2)c(C(F)F)n1 [PQR514] | -3.3 | -1.3 | -2.6 | 7.1 | -6.5 | 7 | -0.5 | 5 | 10.1 | 15.5 | 0.8 | 3.9 | 5.4 |
| O=C(NCCCNc1nc(Nc2cccc(NC(=O)N3CCCC3)c2)ncc1I)c1cccs1 [BX-795] | 3.7 | 0 | -2.6 | 1.1 | -1.9 | -2.6 | 5.5 | 2.6 | -2.2 | 2.2 | -3.5 | -4.1 | 5.1 |
| Cc1nc(Nc2n[nH]c3c2CN(C(=O)N[C@H](CN(C)C)c2ccccc2)C3(C)C)c2sccc2n1 | 5.3 | 17.9 | 3.6 | 12.7 | 0 | 5.3 | -5.2 | 0.7 | 4.9 | 15.4 | 9.2 | 5.9 | -4.7 |
| Cn1cc(C2=C(c3ccc(Cl)cc3Cl)C(=O)NC2=O)c2ccccc21 | 6.9 | 0.1 | -1.5 | -1.5 | -1.5 | -1.5 | -6.5 | -1.5 | 3.8 | 5.1 | 2.1 | -1.5 | 0.4 |
| O=C(CCCCCCC(=O)Nc1ccccc1)NO [Vorinostat] | 9.5 | 6.3 | -0.2 | 6.6 | -3.6 | 0.5 | 3.3 | -0.7 | 5.1 | 8 | 7.3 | -4 | 5.3 |
| CC[C@@]1(O)C(=O)OCc2c1cc1n(c2=O)Cc2cc3c(CN(C)C)c(O)ccc3nc2-1 [Topotecan] | 19.4 | 19.4 | -4.9 | 15.8 | -2.7 | 3.4 | 8 | 19.6 | 10.8 | 20.1 | 16.4 | 5.3 | 7.3 |
| COc1ncc(-c2ccc3nccc(-c4ccnnc4)c3c2)cc1NS(=O)(=O)c1ccc(F)cc1F [Omipalisib] | -3.7 | 6.3 | -3.7 | 9 | -4.5 | 8.8 | 5.6 | 2 | 11.4 | 12.8 | 0.9 | 6.3 | 2.7 |
| C=C(F)C(=O)N1CCN(c2nc(OC[C@@H]3CCCN3C)nc3c2CCN(c2cccc4cccc(Cl)c24)C3)C[C@@H]1CC#N [MRTX849] | -0.9 | 2 | 0.7 | 1.8 | 1.5 | 0.7 | 3.5 | -1.7 | 1.6 | 1.1 | 0.1 | 4.8 | -1.7 |
| CN1CC[C@H](c2c(O)cc(O)c3c(=O)cc(-c4ccccc4Cl)oc23)[C@H](O)C1 [Alvocidib] | 2.6 | 7.8 | 8.9 | 9 | 5.8 | 5.7 | 8 | 6.1 | 6.3 | 7.1 | 6.6 | 8.5 | 3.7 |
| CC(=O)c1c(C)c2cnc(Nc3ccc(N4CCNCC4)cn3)nc2n(C2CCCC2)c1=O [Palbociclib] | -2.5 | 6.9 | -0.3 | 2.9 | 1 | 10.4 | -1.6 | 0 | 5.8 | 11.4 | 2.4 | 6.1 | -7.7 |
